Test results reported in article PMC3948622, “Docking, Synthesis and Antiproliferative Activity of N-Acylhydrazone Derivatives Designed as Combretastatin A4 Analogues” (PLoS ONE, 2014).
Values after ≈ are worked out from the molar mass of the structure shown.

Legend:
[1] = test system: SF-295 (glioblastoma); assay: Hollow Fiber Assay (HFA), SF-295 fibers s.c. in mice; format: in vivo, BALB/c nude mice; conditions: 25 mg/kg/day intraperitoneally, 4 days
Protocol: (§1) Cell culture of SF-295 (glioblastoma) and HCT-116 (colon carcinoma) was performed in RPMI 1640 medium supplemented with 10% fetal bovine serum, 2 mM glutamine, at 37°C with 5% CO2.
(§2) Polyvinylidene fluoride (PVDF) HFs with a 1-mm internal diameter and a molecular weight cutoff point of 500 kDa were used (Spectrum Laboratories, Houston, TX). The fibers were cut into pieces 12–15 cm long, washed 2× with sterile distilled water and kept in sterile conditions.
(§3) Before use, under sterile conditions, the fibers were incubated in complete RPMI with 20% fetal bovine serum (FBS) overnight (packaging time). Cell viability was assessed by trypan blue exclusion assay. Then, a cell suspension of 7.0×10^6 cell/mL at 4°C was injected into the fiber, with the ends thereof immediately heat-sealed. The fibers were cut into 2 cm each, transferred to petri plates and incubated in complete RPMI medium for 24 h prior to implantation in mice. Each cell was injected into one fiber of a different color (HCT-116, yellow fibers; SF-295, blue fibers).
(§4) Each animal received 2 fibers at s.c. site. All incisions were sealed with a surgical stapler.
(§5) Tumor cell proliferation was quantified through the ability of living cells to reduce the yellow dye 3-(4,5-dimethyl-2-thiazolyl)-2,5-diphenyl-2H-tetrazolium bromide (MTT, Sigma Aldrich) to a purple formazan product. For this purpose, the fibers removed from animals were incubated with MTT 1 mg/mL in 6-well plates during 4 h at 37°C, 5% CO2 and 95% humidity. The MTT solution was aspirated; fibers were washed with saline solution containing protamine sulphate 2.5% and incubated in protamine solution overnight at 4°C. Fibers were transferred to 24 well plates, cut into 2 or 3 pieces and put to dry. The formazan was dissolved in […] of DMSO, aliquots (150 uL) were transferred to 96 well plates and absorbance was measured at 595 nm (DTX-880, Beckman Coulter).

[2] = test system: HCT-116 (colon carcinoma); assay: Hollow Fiber Assay (HFA), HCT-116 fibers s.c. in mice; format: in vivo, BALB/c nude mice; conditions: 25 mg/kg/day intraperitoneally, 4 days
Protocol: as §1, §2, §3, §4, §5

[3] = test system: BALB/c nude mice; conditions: intraperitoneally for 4 consecutive days, HFA
Protocol: During the HFA, tumor cells (i.e., SF-295 and HCT-116) were cultivated within biocompatible, semipermeable polyvinylidene fluoride hollow fibers (HFs) and subcutaneously (s.c.) implanted within the dorsal portion of BALB/c nude mice. LASSBio-1586 (5b) and 5-Fluorouracil (5-FU), which was the positive control, were administered intraperitoneally for 4 consecutive days. On day 5, the fibers were removed to quantify the antiproliferative activity of 5b and 5-FU.
A total of 26 female BALB/c nude (nu/nu) mice aging 6–8 weeks were obtained from the animal facilities of State University of São Paulo (USP), Faculty of Medicine, São Paulo (SP), Brazil. They were kept in well-ventilated and sterile cages (Alesco, São Paulo) under standard conditions of light (12 h with alternative day and night cycles) and temperature (22±1°C) and were housed with access to commercial sterile rodent stock diet (Nutrilabor, São Paulo, Brazil) and water ad libitum. As previously mentioned procedures are in accordance with guidelines for the welfare of animals in experimental neoplasia and with national and international standard on the care and use of experimental laboratory animals and were approved by the local Ethical Committee on Animal Research (Process No. 102/2007).
Mice were anaesthetized with ketamine (90 mg/kg) - xylazine (4.5 mg/kg) (Sigma Aldrich). Groups were divided into: a) Negative control (DMSO 5%, n = 6); b) Positive control (5-Flouoruracil, 5-FU, 25 mg/kg/day, n = 7) (Sigma Aldrich); c) LASSBio-1586 (5b; 25 mg/kg/day, n = 7); d) LASSBio-1586 (5b; 50 mg/kg/day, n = 6). A small incision in the neck was incised to permit subcutaneous (s.c.) implantation of the fibers in the dorsal part of the animal. Each animal received 2 fibers at s.c. site. All incisions were sealed with a surgical stapler. The test compounds were administered intraperitoneally during 4 consecutive days. On day 5, fibers were removed to quantify the antiproliferative capacity as described above.

[4] = test system: HL-60 (human leukemia); assay: In vitro antiproliferative MTT assay, HL-60; format: cell-based; conditions: for IC50: Homo sapiens, HL-60, Table 2, MTT; for SI Lymphocyte/ HL-60: IC50 for human lymphocytes/IC50 for cancer cell line
Protocol: (§6) The antiproliferative activity of compounds 5a–r was determined based on an MTT assay and using CA-4 as standard against the tumor cell lines: HL-60 (human leukemia), SF-295 (human glioblastoma), MDA-MB435 (melanoma), PC3M (prostate cancer), OVCAR-8 (ovaries adenocarcinoma), NCI-H258M (pulmonary bronchio-alveolar carcinoma) and HCT-8 (adenocarcinoma ileocecal) (Table 2). To determine the selectivity index of compounds 5a–r, their antiproliferative profile was also evaluated toward human lymphocytes (Table 2).
(§7) Compounds (0.009–5 µg/mL) were tested for cytotoxic activity against selected cancer cell lines: SF-295 (glioblastoma), HCT-8 (colon), MDAMB-435 (melanoma), HL60 (leukemia), PC3M (prostate cancer), OVCAR-8 (ovaries adenocarcinoma) and NCI-H258M (pulmonary bronchio-alveolar carcinoma). All cell lines were kindly obtained from the National Cancer Institute (Bethesda, MD, USA).Tumor cell proliferation was quantified through the ability of living cells to reduce the yellow dye 3-(4,5-dimethyl-2-thiazolyl)-2,5-diphenyl-2H-tetrazolium bromide (MTT, Sigma Aldrich)) to a purple formazan product and absorbance was measured at 595 nm (DTX-880, Beckman Coulter).

[5] = test system: human lymphocytes; assay: In vitro antiproliferative assay, human lymphocytes; format: cell-based; conditions: Lymphocyte, Table 2
Protocol: as §6
To investigate the selective cytotoxic activity of the N-acylhydrazones derivatives (5a–r), their antiproliferative potency was also assessed toward human lymphocytes and the results were compared to the data from CA-4 ([…]). The selectivity index (SI), which was the IC50 for human lymphocytes/IC50 for cancer cell lines after treatment with CA-4 and N-acylhydrazones (5a–r), was calculated, as depicted in Table 3. […] The best comparative selectivity indices (CA-4 vs 5b) were obtained from the SF-295 (SI = 13), MDA-MB435 (SI = 42) and NCI-H258M (SI = 9.5) tumor cell lines, and the worst results were found for OVCAR-8 (SI = 0.5).

[6] = test system: NCI-H358M (pulmonary bronchio-alveolar carcinoma); assay: In vitro antiproliferative MTT assay, NCI-H358M; format: cell-based; conditions: for SI Lymphocyte/ NCI-H358M: IC50 for human lymphocytes/IC50 for cancer cell line; for IC50: NCI-H358M, Table 2, MTT
[7] = test system: SF-295 (human glioblastoma); assay: In vitro antiproliferative MTT assay, SF-295; format: cell-based; conditions: for IC50: Homo sapiens, SF-295, Table 2, MTT, read-out: IC50 SF295; for SI Lymphocyte/ SF-295: IC50 for human lymphocytes/IC50 for cancer cell line
Protocol: as §6, §7

[8] = test system: OVCAR-8 (ovaries adenocarcinoma); assay: In vitro antiproliferative MTT assay, OVCAR-8; format: cell-based; conditions: for IC50: Homo sapiens, OVCAR-8, Table 2, MTT; for SI Lymphocyte/ OVCAR-8: IC50 for human lymphocytes/IC50 for cancer cell line
Protocol: as §6, §7

[9] = test system: PC3M (prostate cancer); assay: In vitro antiproliferative MTT assay, PC3M; format: cell-based; conditions: for IC50: Homo sapiens, PC-3M, Table 2, MTT; for SI Lymphocyte/ PC3M: IC50 for human lymphocytes/IC50 for cancer cell line
Protocol: as §6, §7

[10] = test system: MDA-MB435 (melanoma); assay: In vitro antiproliferative MTT assay, MDA-MB435; format: cell-based; conditions: Homo sapiens, MDA-MB-435; Table 2; MTT
[11] = Aqueous solubility assay by ultraviolet spectroscopy; format: physicochemical; conditions: water (saturated aqueous solution), thermodynamic from solid, 2 hours at 37°C, read-out: Aq. Solubility
Protocol: Ultraviolet spectroscopy was performed using Femto spectrophotometer. The wavelength used in solubility assay was determined by the -λ max characteristic of each compound. Spectra were analyzed in Femtoscan software. Mass spectrometry was obtained by positive ionization at Bruker AmaZon SL and data analyzed in Compass 1.3.SR2 software.
The solubility assay was performed considering the absorptivity of compounds in ultraviolet spectroscopy as described by Schneider and coworkers. The assay wavelength was determined by the λ max characteristic of each compound.
Saturated aqueous solutions were prepared (0.01 mg/mL) and were kept under stirring for 2 hours at 37°C. The supernatant was filtered in 0,45 µm filters and transferred to a quartz cuvette (10 mm) to spectra acquisition.
Solubility was determined by linear regression using as graph plots, solutions prepared by dilutions of the original solution in methanol. The data were obtained in triplicates and the mean values were used to the graph plots. The correlation coefficient (R^2) values were between 0.9972 and 0.9999.

[12] = test system: MDA-MB435 (melanoma); assay: In vitro antiproliferative MTT assay, MDA-MB435; format: cell-based; conditions: IC50 for human lymphocytes/IC50 for cancer cell line
Protocol: as §6, §7

[13] = test system: HCT-8 (adenocarcinoma ileocecal); assay: In vitro antiproliferative MTT assay, HCT-8; format: cell-based; conditions: for IC50: Homo sapiens, HCT-8, Table 2, MTT; for SI Lymphocyte/ HCT-8: IC50 for human lymphocytes/IC50 for cancer cell line
Protocol: as §6, §7

[14] = test system: tumor cell lines; assay: In vitro antiproliferative MTT assay, tumor cell lines (summary over the panel); format: cell-based; conditions: summary in text over the cell lines of Table 2; read-out: IC50 (antiproliferative potency over the tumor cell lines)
Protocol: as §6, §7

Structure (SMILES)	IC50 [4]	SI Lymphocyte/ HL-60 [4]	IC50 [5]	SI Lymphocyte/ NCI-H358M [6]	IC50 [6]	melting point	IC50 [7]	SI Lymphocyte/ SF-295 [7]	IC50 [8]	SI Lymphocyte/ OVCAR-8 [8]	IC50 [9]	SI Lymphocyte/ PC3M [9]	IC50 [10]	solubility at 2 h [11]	SI Lymphocyte/ MDA-MB345 [12]	IC50 [13]	SI Lymphocyte/ HCT-8 [13]	also measured
O=c1[nH]cc(F)c(=O)[nH]1 [Compound 5-FU, 5-Fluorouracil, reference compound]																		Inhibition (%) SF-295 [1]: 65.40%; Proliferation (OD595 nm) SF-295 ([1]; mean ± S.E.M.): 0.52±0.08 OD595 nm; Inhibition (%) HCT-116 [2]: 62.08%; Proliferation (OD595 nm) HCT-116 ([2]; mean ± S.E.M.): 0.59±0.10 OD595 nm; deaths of mice during treatment [3]: no deaths occurred
COc1cc(C(=O)N/N=C/c2cc(C(C)(C)C)c(O)c(C(C)(C)C)c2)cc(OC)c1OC [Compound 5k, (E)-N′-(3,5-di-tert-butyl-4hydroxybenzylidene)-3,4,5-trimetoxybenzohydrazide]	> 25 µM	1.1	> 56.5 µM	1	> 25 µM	222 to 224 °C	> 25 µM	1	> 25 µM	1	> 25 µM	1	> 25 µM	0.0236 µg/mL (≈ 0.0533 µM)	1	> 25 µM	1	
COc1cc(C(=O)N/N=C/c2ccc(-c3ccccc3)cc2)cc(OC)c1OC [Compound 5n, (E)-N′-(biphenyl-4-ylmethylene)-3,4,5-trimethoxyibenzohydrazide]	> 25 µM	1.0	> 64.1 µM	1	> 25 µM	187 to 188 °C	> 25 µM	1.0	> 25 µM	1	> 25 µM	1	> 25 µM	0.0606 µg/mL (≈ 0.155 µM)	1.0	> 25 µM	1.0	IC50 [14]: > 25 µM
COc1cc(C(=O)N/N=C/c2ccc(F)cc2)cc(OC)c1OC [Compound 5p, (E)-N′-(4-fluorobenzylidene) - 3,4,5-trimetoxybenzohyidrazide]	1.27 µM	3.11±0.11	3.82 µM	1.76±0.04	2.16 µM	181 to 182 °C	2.69 µM	1.46±0.06	0.96 µM	4.38±0.38	4.48 µM	0.89±0.01	1.58 µM	20.9 µg/mL (≈ 62.9 µM)	2.34±0.06	2.02 µM	1.85±0.04	
